Key:
Assay in all cases: B2 Post-Emergence Efficacy - Test 2
Format in all cases: in vivo
Avena fatua (AVEFA) = conditions: 15 days after application, 0-100 scale
How it was run: (§1)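 The compound, dissolved in IF50 and made up as an aqueous spray with 0.2% v/v Genapol X080, is applied post-emergence to plants raised for 12 days from seed. Injury is assessed 15 days afterwards, 0 for undamaged through 100 for fully killed.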

Beta vulgaris (BEAVA) = conditions: 15 days after application, 0-100 scale
How it was run: as §1

Brassica napus (BRSNN) = conditions: 15 days after application, 0-100 scale
How it was run: as §1

Bromus tectorum (BROTE) = conditions: 15 days after application, 0-100 scale
How it was run: as §1

Eleisine indica (ELEIN) = conditions: 15 days after application, 0=no damage, 100=total kill
How it was run: as §1

[1] = tested on: Euphorbia hetrophylla (EPHHL); conditions: 15 days after application, 0-100 scale
How it was run: as §1

Galium aparine (GALAP) = conditions: 15 days after application, 0-100 scale
How it was run: as §1

Glycine max (GLXMA) = conditions: 15 days after application; for Herbicidal activity GLXMA: 0-100 scale; for Herbicidal activity on a 0-100 scale, GLXMA: 0=no damage, 100=total kill
How it was run: as §1

[2] = tested on: Ipomoea hederacea (IPOHE); conditions: 15 days after application, 0-100 scale
How it was run: as §1

Lolium perenne (LOLPE) = conditions: 15 days after application, 0-100 scale
How it was run: as §1

[3] = tested on: Panicum miliaceum (PANMI); conditions: 15 days after application, 0=no damage, 100=total kill
How it was run: as §1

Poa annua (POAAN) = conditions: 15 days after application, 0-100 scale
How it was run: as §1

Sida spinosa (SIDSP) = conditions: 15 days after application, 0-100 scale
How it was run: as §1

Sinapis arvensis (SINAR) = conditions: 15 days after application, 0-100 scale
How it was run: as §1

Sorghum bicolour (SORVU) = conditions: 15 days after application, 0=no damage, 100=total kill
How it was run: as §1

[4] = tested on: Xanthium strumarium (XANST); conditions: 15 days after application, 0-100 scale
How it was run: as §1

Zea mays (ZEAMX) = conditions: 15 days after application; for Herbicidal activity ZEAMX: 0-100 scale; for Herbicidal activity on a 0-100 scale, ZEAMX: 0=no damage, 100=total kill
How it was run: as §1

Structure (SMILES): Cc1nn(C)c(=O)c(-c2c(F)ccc(Cl)c2CCc2ccc(Cl)cc2)c1OC(=O)C(C)C [Compound 1.089, [5-[3-chloro-2-[2-(4-chlorophenyl)ethyl]-6-fluoro-phenyl]-1,3-dimethyl-6-oxo-pyridazin-4-yl] 2-methylpropanoate]
- Herbicidal activity AVEFA (Avena fatua (AVEFA); 15 g/Ha): 30
- Herbicidal activity AVEFA (Avena fatua (AVEFA); 30 g/Ha): 70
- Herbicidal activity AVEFA (Avena fatua (AVEFA); 60 g/Ha): 70
- Herbicidal activity AVEFA (Avena fatua (AVEFA); 125 g/Ha): 80
- Herbicidal activity AVEFA (Avena fatua (AVEFA); 250 g/Ha): 90
- Herbicidal activity AVEFA (Avena fatua (AVEFA); 500 g/Ha): 90
- Herbicidal activity BEAVA (Beta vulgaris (BEAVA); 15 g/Ha): 90
- Herbicidal activity BEAVA (Beta vulgaris (BEAVA); 30 g/Ha): 80
- Herbicidal activity BEAVA (Beta vulgaris (BEAVA); 60 g/Ha): 80
- Herbicidal activity BEAVA (Beta vulgaris (BEAVA); 125 g/Ha): 80
- Herbicidal activity BEAVA (Beta vulgaris (BEAVA); 250 g/Ha): 90
- Herbicidal activity BEAVA (Beta vulgaris (BEAVA); 500 g/Ha): 90
- Herbicidal activity BRSNN (Brassica napus (BRSNN); 15 g/Ha): 80
- Herbicidal activity BRSNN (Brassica napus (BRSNN); 30 g/Ha): 80
- Herbicidal activity BRSNN (Brassica napus (BRSNN); 60 g/Ha): 90
- Herbicidal activity BRSNN (Brassica napus (BRSNN); 125 g/Ha): 90
- Herbicidal activity BRSNN (Brassica napus (BRSNN); 250 g/Ha): 90
- Herbicidal activity BRSNN (Brassica napus (BRSNN); 500 g/Ha): 90
- Herbicidal activity BROTE (Bromus tectorum (BROTE); 15 g/Ha): 0
- Herbicidal activity BROTE (Bromus tectorum (BROTE); 30 g/Ha): 0
- Herbicidal activity BROTE (Bromus tectorum (BROTE); 60 g/Ha): 10
- Herbicidal activity BROTE (Bromus tectorum (BROTE); 125 g/Ha): 30
- Herbicidal activity BROTE (Bromus tectorum (BROTE); 250 g/Ha): 60
- Herbicidal activity BROTE (Bromus tectorum (BROTE); 500 g/Ha): 70
- Herbicidal activity on a 0-100 scale, ELEIN (Eleisine indica (ELEIN); 15 g/Ha): 0
- Herbicidal activity on a 0-100 scale, ELEIN (Eleisine indica (ELEIN); 30 g/Ha): 0
- Herbicidal activity on a 0-100 scale, ELEIN (Eleisine indica (ELEIN); 60 g/Ha): 70
- Herbicidal activity on a 0-100 scale, ELEIN (Eleisine indica (ELEIN); 125 g/Ha): 80
- Herbicidal activity on a 0-100 scale, ELEIN (Eleisine indica (ELEIN); 250 g/Ha): 90
- Herbicidal activity on a 0-100 scale, ELEIN (Eleisine indica (ELEIN); 500 g/Ha): 90
- Herbicidal activity EPHHL ([1]; 15 g/Ha): 80
- Herbicidal activity EPHHL ([1]; 30 g/Ha): 100
- Herbicidal activity EPHHL ([1]; 60 g/Ha): 100
- Herbicidal activity EPHHL ([1]; 125 g/Ha): 100
- Herbicidal activity EPHHL ([1]; 250 g/Ha): 100
- Herbicidal activity EPHHL ([1]; 500 g/Ha): 100
- Herbicidal activity GALAP (Galium aparine (GALAP); 15 g/Ha): 10
- Herbicidal activity GALAP (Galium aparine (GALAP); 30 g/Ha): 20
- Herbicidal activity GALAP (Galium aparine (GALAP); 125 g/Ha): 30
- Herbicidal activity GALAP (Galium aparine (GALAP); 250 g/Ha): 30
- Herbicidal activity GALAP (Galium aparine (GALAP); 500 g/Ha): 90
- Herbicidal activity GLXMA (Glycine max (GLXMA); 30 g/Ha): 70
- Herbicidal activity on a 0-100 scale, GLXMA (Glycine max (GLXMA); 30 g/Ha): 70
- Herbicidal activity GLXMA (Glycine max (GLXMA); 60 g/Ha): 80
- Herbicidal activity on a 0-100 scale, GLXMA (Glycine max (GLXMA); 60 g/Ha): 80
- Herbicidal activity GLXMA (Glycine max (GLXMA); 250 g/Ha): 100
- Herbicidal activity on a 0-100 scale, GLXMA (Glycine max (GLXMA); 250 g/Ha): 100
- Herbicidal activity GLXMA (Glycine max (GLXMA); 500 g/Ha): 100
- Herbicidal activity on a 0-100 scale, GLXMA (Glycine max (GLXMA); 500 g/Ha): 100
- Herbicidal activity IPOHE ([2]; 15 g/Ha): 100
- Herbicidal activity IPOHE ([2]; 30 g/Ha): 100
- Herbicidal activity IPOHE ([2]; 60 g/Ha): 100
- Herbicidal activity IPOHE ([2]; 125 g/Ha): 100
- Herbicidal activity IPOHE ([2]; 250 g/Ha): 100
- Herbicidal activity IPOHE ([2]; 500 g/Ha): 100
- Herbicidal activity LOLPE (Lolium perenne (LOLPE); 15 g/Ha): 40
- Herbicidal activity LOLPE (Lolium perenne (LOLPE); 30 g/Ha): 70
- Herbicidal activity LOLPE (Lolium perenne (LOLPE); 60 g/Ha): 80
- Herbicidal activity LOLPE (Lolium perenne (LOLPE); 125 g/Ha): 90
- Herbicidal activity LOLPE (Lolium perenne (LOLPE); 250 g/Ha): 90
- Herbicidal activity LOLPE (Lolium perenne (LOLPE); 500 g/Ha): 90
- Herbicidal activity on a 0-100 scale, PANMI ([3]; 15 g/Ha): 0
- Herbicidal activity on a 0-100 scale, PANMI ([3]; 30 g/Ha): 20
- Herbicidal activity on a 0-100 scale, PANMI ([3]; 60 g/Ha): 50
- Herbicidal activity on a 0-100 scale, PANMI ([3]; 125 g/Ha): 60
- Herbicidal activity on a 0-100 scale, PANMI ([3]; 250 g/Ha): 80
- Herbicidal activity on a 0-100 scale, PANMI ([3]; 500 g/Ha): 90
- Herbicidal activity POAAN (Poa annua (POAAN); 15 g/Ha): 20
- Herbicidal activity POAAN (Poa annua (POAAN); 30 g/Ha): 40
- Herbicidal activity POAAN (Poa annua (POAAN); 60 g/Ha): 70
- Herbicidal activity POAAN (Poa annua (POAAN); 125 g/Ha): 90
- Herbicidal activity POAAN (Poa annua (POAAN); 250 g/Ha): 80
- Herbicidal activity POAAN (Poa annua (POAAN); 500 g/Ha): 70
- Herbicidal activity SIDSP (Sida spinosa (SIDSP); 30 g/Ha): 80
- Herbicidal activity SIDSP (Sida spinosa (SIDSP); 60 g/Ha): 90
- Herbicidal activity SIDSP (Sida spinosa (SIDSP); 125 g/Ha): 100
- Herbicidal activity SIDSP (Sida spinosa (SIDSP); 250 g/Ha): 100
- Herbicidal activity SIDSP (Sida spinosa (SIDSP); 500 g/Ha): 100
- Herbicidal activity SINAR (Sinapis arvensis (SINAR); 15 g/Ha): 70
- Herbicidal activity SINAR (Sinapis arvensis (SINAR); 30 g/Ha): 80
- Herbicidal activity SINAR (Sinapis arvensis (SINAR); 60 g/Ha): 90
- Herbicidal activity SINAR (Sinapis arvensis (SINAR); 125 g/Ha): 90
- Herbicidal activity SINAR (Sinapis arvensis (SINAR); 250 g/Ha): 90
- Herbicidal activity SINAR (Sinapis arvensis (SINAR); 500 g/Ha): 90
- Herbicidal activity on a 0-100 scale, SORVU (Sorghum bicolour (SORVU); 15 g/Ha): 0
- Herbicidal activity on a 0-100 scale, SORVU (Sorghum bicolour (SORVU); 30 g/Ha): 60
- Herbicidal activity on a 0-100 scale, SORVU (Sorghum bicolour (SORVU); 60 g/Ha): 70
- Herbicidal activity on a 0-100 scale, SORVU (Sorghum bicolour (SORVU); 125 g/Ha): 90
- Herbicidal activity on a 0-100 scale, SORVU (Sorghum bicolour (SORVU); 250 g/Ha): 90
- Herbicidal activity on a 0-100 scale, SORVU (Sorghum bicolour (SORVU); 500 g/Ha): 90
- Herbicidal activity XANST ([4]; 30 g/Ha): 90
- Herbicidal activity XANST ([4]; 60 g/Ha): 80
- Herbicidal activity XANST ([4]; 125 g/Ha): 90
- Herbicidal activity XANST ([4]; 250 g/Ha): 90
- Herbicidal activity XANST ([4]; 500 g/Ha): 100
- Herbicidal activity ZEAMX (Zea mays (ZEAMX); 15 g/Ha): 0
- Herbicidal activity on a 0-100 scale, ZEAMX (Zea mays (ZEAMX); 15 g/Ha): 0
- Herbicidal activity ZEAMX (Zea mays (ZEAMX); 30 g/Ha): 20
- Herbicidal activity on a 0-100 scale, ZEAMX (Zea mays (ZEAMX); 30 g/Ha): 20
- Herbicidal activity ZEAMX (Zea mays (ZEAMX); 60 g/Ha): 30
- Herbicidal activity on a 0-100 scale, ZEAMX (Zea mays (ZEAMX); 60 g/Ha): 30
- Herbicidal activity ZEAMX (Zea mays (ZEAMX); 125 g/Ha): 30
- Herbicidal activity on a 0-100 scale, ZEAMX (Zea mays (ZEAMX); 125 g/Ha): 30
- Herbicidal activity ZEAMX (Zea mays (ZEAMX); 250 g/Ha): 90
- Herbicidal activity on a 0-100 scale, ZEAMX (Zea mays (ZEAMX); 250 g/Ha): 90
- Herbicidal activity ZEAMX (Zea mays (ZEAMX); 500 g/Ha): 100
- Herbicidal activity on a 0-100 scale, ZEAMX (Zea mays (ZEAMX); 500 g/Ha): 100

From patent publication US20230301300A1, “HERBICIDAL COMPOSITIONS” (SYNGENTA CROP PROTECTION AG, priority 2020, published 2023)
